Where a name gives a salt, the structure may show the parent alone.

This test concerns the target T1, GPR119 receptor (Mesocricetus auratus, UniProt A0A1U8CD06).
T1 construct: which endogenously express the GPR119 receptor; host or cells: HIT-T15 hamster pancreatic islet cells
T1 sequence (A0A1U8CD06 1-334): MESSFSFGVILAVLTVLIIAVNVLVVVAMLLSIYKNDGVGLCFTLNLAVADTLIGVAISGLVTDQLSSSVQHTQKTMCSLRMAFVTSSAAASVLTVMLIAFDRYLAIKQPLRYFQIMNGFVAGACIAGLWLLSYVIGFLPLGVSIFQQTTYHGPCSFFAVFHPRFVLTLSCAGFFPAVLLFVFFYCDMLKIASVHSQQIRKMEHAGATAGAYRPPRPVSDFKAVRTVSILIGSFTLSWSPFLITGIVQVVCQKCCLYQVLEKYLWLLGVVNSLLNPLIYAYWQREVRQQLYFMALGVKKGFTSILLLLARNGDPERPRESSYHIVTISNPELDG
In words: cAMP assay in HIT-T15 hamster pancreatic islet cells (functional agonist activity). The format is cell-based. To be noted: HIT-T15 cells endogenously expressing GPR119; 30 min at 25° C.; intracellular cAMP. The method, boiled down:
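cAMP immunoassay with luminescent read-out, EC50 fitted, after a 30 min, 25° C agonist incubation in HIT-T15 hamster islet cells expressing GPR119 natively. Medium contained 0.5 mM IBMX and 0.5 mg/ml BSA; 9000 cells/well.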
(Changes in cAMP serve as a functional read-out for many G protein-coupled receptors.)
As for `CCOc1ccc(Oc2ncnc3c2cnn3C2CCN(C(=O)OC(C)(C)C)CC2)cc1` [Example 40, 4-[4-(4-Ethoxy-phenoxy)-pyrazolo[3,4-d]pyrimidin-1-yl]-piperidine-1-carboxylic acid tert-butyl ester], the EC50 (in general, the concentration at which the effect is half-maximal) amounted to 0.2 µM. This counts as sub-micromolar. For `CC(C)OC(=O)N1CCC(n2ncc3c(Oc4c(C#N)ccc(F)c4F)ncnc32)CC1` [Example 20, 4-[4-(6-Cyano-2,3-difluoro-phenoxy)-pyrazolo[3,4-d]pyrimidin-1-yl]-piperidine-1-carboxylic acid isopropyl ester], the response was half-maximal at 0.57 µM (EC50).

`CC(C)(C)OC(=O)N1CCC(n2ncc3c(Oc4ccc(Cl)cc4Cl)ncnc32)CC1` [Example 38, 4-[4-(2,4-Dichloro-phenoxy)-pyrazolo[3,4-d]pyrimidin-1-yl]-piperidine-1-carboxylic acid tert-butyl ester] came in with a concentration giving a half-maximal response (EC50) of 0.49 µM. The EC50 values of the last two compounds are within 1.5-fold of each other.

For the compound `Cc1nn(C2CCN(C(=O)OC(C)C)CC2)c2ncnc(Oc3ccc(S(C)(=O)=O)cc3)c12` [Example 22, 4-[4-(4-Methanesulfonyl-phenoxy)-3-methyl-pyrazolo[3,4-d]pyrimidin-1-yl]-piperidine-1-carboxylic acid isopropyl ester], a half-maximal response (EC50) required 0.21 µM. In the case of `CC(=O)c1ccc(Oc2ncnc3c2cnn3C2CCN(C(=O)OC(C)(C)C)CC2)cc1C` [Example 65, 4-[4-(4-Acetyl-3-methyl-phenoxy)-pyrazolo[3,4-d]pyrimidin-1-yl]-piperidine-1-carboxylic acid tert-butyl ester] it was 0.31 µM; in that of `CC(C)(C)OC(=O)N1CCC(n2ncc3c(Oc4ccccc4C#N)ncnc32)CC1` [Example 45, 4-[4-(2-Cyano-phenoxy)-pyrazolo[3,4-d]pyrimidin-1-yl]-piperidine-1-carboxylic acid tert-butyl ester], 0.061 µM. On to `Cc1ncccc1Nc1ncnc2c1cnn2C1CCN(C(=O)OC(C)(C)C)CC1` [Example 7, 4-[4-(2-Methyl-pyridin-3-ylamino)-pyrazolo[3,4-d]pyrimidin-1-yl]-piperidine-1-carboxylic acid tert-butyl ester], for which the EC50 amounted to 2.2 µM. In the case of `CC(OC(=O)N1CCC(n2ncc3c(Oc4ccc(S(C)(=O)=O)cc4)ncnc32)CC1)C(F)(F)F` (stereo not drawn) [Example 110, 4-[4-(4-Methanesulfonyl-phenoxy)-pyrazolo[3,4-d]pyrimidin-1-yl]-piperidine-1-carboxylic acid 2,2,2-trifluoro-1-methyl-ethyl ester] it was 1 µM; in that of `CC(C)(C)OC(=O)N1CCC(n2ncc3c(Oc4ccc(S(C)(=O)=O)cc4)ncnc32)CC1` [Example 59, 4-[4-(4-Methanesulfonyl-phenoxy)-pyrazolo[3,4-d]pyrimidin-1-yl]-piperidine-1-carboxylic acid tert-butyl ester], 0.043 µM; in that of `CCOc1ccc(Oc2ncnc3c2cnn3C2CCN(C(=O)OC(C)C)CC2)c(F)c1` [Example 18, 4-[4-(4-Ethoxy-2-fluoro-phenoxy)-pyrazolo[3,4-d]pyrimidin-1-yl]-piperidine-1-carboxylic acid isopropyl ester], 0.38 µM. The compound `CC(C)COC(=O)N1CCC(n2ncc3c(Oc4ccc(S(C)(=O)=O)cc4)ncnc32)CC1` [Example 106, 4-[4-(4-Methanesulfonyl-phenoxy)-pyrazolo[3,4-d]pyrimidin-1-yl]-piperidine-1-carboxylic acid isobutyl ester] gave an EC50 of 0.11 µM. With `CC(C)(C)OC(=O)N1CCC(n2ncc3c(Oc4ccc5c(c4)OCO5)ncnc32)CC1` [Example 41, 4-[4-(Benzo[1,3]dioxol-5-yloxy)-pyrazolo[3,4-d]pyrimidin-1-yl]-piperidine-1-carboxylic acid tert-butyl ester], the EC50 stood at 0.29 µM. Compared with the last compound, the EC50 is about 2.6-fold higher. On to `CC(=O)c1ccc(Oc2ncnc3c2cnn3C2CCN(C(=O)OC(C)(C)C)CC2)cc1` [Example 64, 4-[4-(4-Acetyl-phenoxy)-pyrazolo[3,4-d]pyrimidin-1-yl]-piperidine-1-carboxylic acid tert-butyl ester], for which a half-maximal response (EC50) required 0.15 µM.

Compound `CC(C)Cc1cc(C(=O)N2CCC(n3ncc4c(Oc5ccc(S(C)(=O)=O)cc5)ncnc43)CC2)no1` [Example 154, (5-Isobutyl-isoxazol-3-yl)-{4-[4-(4-methanesulfonyl-phenoxy)-pyrazolo[3,4-d]pyrimidin-1-yl]-piperidin-1-yl}-methanone] came in with an EC50 of 0.36 µM. The value for `CC(C)(C)OC(=O)N1CCC(n2ncc3c(Oc4ccccc4C#N)nc(N)nc32)CC1` [Example 174, 4-[6-Amino-4-(2-cyano-phenoxy)-pyrazolo[3,4-d]pyrimidin-1-yl]-piperidine-1-carboxylic acid tert-butyl ester] was 3.4 µM; that for `CCOC(=O)N1CCC(n2ncc3c(Oc4ccc(S(C)(=O)=O)cc4F)ncnc32)CC1` [Example 14, 4-[4-(2-Fluoro-4-methanesulfonyl-phenoxy)-pyrazolo[3,4-d]pyrimidin-1-yl]-piperidine-1-carboxylic acid ethyl ester] was 0.14 µM; that for `CC(C)(C)OC(=O)N1CCC(n2ncc3c(Oc4ccc(-n5cncn5)cc4)ncnc32)CC1` [Example 80, 4-[4-(4-[1,2,4]Triazol-1-yl-phenoxy)-pyrazolo[3,4-d]pyrimidin-1-yl]-piperidine-1-carboxylic acid tert-butyl ester] was 0.046 µM. In the case of `Cc1nnnn1-c1ccc(Oc2ncnc3c2cnn3[C@H]2CC[C@H](c3nc(C(C)C)no3)CC2)cc1` [Example 133, 1-[4-(3-Isopropyl-[1,2,4]oxadiazol-5-yl)-trans-cyclohexyl]-4-[4-(5-methyl-tetrazol-1-yl)phenoxy]-1H-pyrazolo[3,4-d]pyrimidine] it was 3.34 µM; in that of `Cc1ncccc1Oc1ncnc2c1cnn2C1CCN(C(=O)OC(C)(C)C)CC1` [Example 92, 4-[4-(2-Methyl-pyridin-3-yloxy)-pyrazolo[3,4-d]pyrimidin-1-yl]-piperidine-1-carboxylic acid tert-butyl ester], 0.17 µM; in that of `Cc1nc(S(C)(=O)=O)ccc1Oc1ncnc2c1cnn2C1CCN(C(=O)OC(C)(C)C)CC1` [Example 98, 4-[4-(6-Methanesulfonyl-2-methyl-pyridin-3-yloxy)-pyrazolo[3,4-d]pyrimidin-1-yl]-piperidine-1-carboxylic acid tert-butyl ester], 0.096 µM. Turning to `CC(C)(C)OC(=O)N1CCC(n2ncc3c(Oc4cc(F)cc(C(F)(F)F)c4)ncnc32)CC1` [Example 53, 4-[4-(3-Fluoro-5-trifluoromethyl-phenoxy)-pyrazolo[3,4-d]pyrimidin-1-yl]-piperidine-1-carboxylic acid tert-butyl ester], a half-maximal response (EC50) required 0.49 µM. Compared with the last compound, the EC50 is about 5.1-fold higher. In turn, `CC(C)CS(=O)(=O)N1CCC(n2ncc3c(Oc4ccc(S(C)(=O)=O)cc4)ncnc32)CC1` [Example 171, 4-(4-Methanesulfonyl-phenoxy)-1-[1-(2-methyl-propane-1-sulfonyl)-piperidin-4-yl]-1H-pyrazolo[3,4-d]pyrimidine] gave an EC50 of 0.4 µM. The EC50 values of the last two compounds are within 1.5-fold of each other. In the case of `COc1ccccc1CN1CCC(n2ncc3c(Oc4ccc(S(C)(=O)=O)cc4)ncnc32)CC1` [Example 165, 4-(4-Methanesulfonyl-phenoxy)-1-[1-(2-methoxy-benzyl)-piperidin-4-yl]-1H-pyrazolo[3,4-d]pyrimidine] it was 1.4 µM; in that of `CC(C)(C)OC(=O)N1CCC(n2ncc3c(Oc4cccc(F)c4)ncnc32)CC1` [Example 33, 4-[4-(3-Fluoro-phenoxy)-pyrazolo[3,4-d]pyrimidin-1-yl]-piperidine-1-carboxylic acid tert-butyl ester], 0.6 µM; in that of `CC(C)(C)OC(=O)N1CCC(n2ncc3c(Oc4ccc5ccc(=O)oc5c4)ncnc32)CC1` [Example 75, 4-[4-(2-Oxo-2H-chromen-7-yloxy)-pyrazolo[3,4-d]pyrimidin-1-yl]-piperidine-1-carboxylic acid tert-butyl ester], 1.8 µM. The compound `CS(=O)(=O)c1ccc(Oc2ncnc3c2cnn3C2CCN(c3ccc(Cl)nn3)CC2)cc1` [Example 130, 1-[1-(6-Chloro-pyridazin-3-yl)-piperidin-4-yl]-4-(4-methanesulfonyl-phenoxy)-1H-pyrazolo[3,4-d]pyrimidine] registered an EC50 of 0.71 µM.

Compound `CC(C)OC(=O)N1CCC(n2ncc3c(Nc4cc(F)c(F)cc4F)ncnc32)CC1` [Example 2, 4-[4-(2,4,5-Trifluoro-phenylamino)-pyrazolo[3,4-d]pyrimidin-1-yl]-piperidine-1-carboxylic acid isopropyl ester] registered a 50% effective concentration (EC50) of 3.1 µM.

For the compound `Cc1ncccc1Oc1ncnc2c1cnn2C1CCN(C(=O)OC(C)C)CC1` [Example 28, 4-[4-(2-Methyl-pyridin-3-yloxy)-pyrazolo[3,4-d]pyrimidin-1-yl]-piperidine-1-carboxylic acid isopropyl ester hydrochloride salt], the EC50 was found to be 0.82 µM. This EC50 is about 3.8-fold lower than that of the compound before. `CC(C)(C)OC(=O)N1CCC(n2ncc3c(Oc4ccc5[nH]ccc5c4)ncnc32)CC1` [Example 74, 4-[4-(1H-Indol-5-yloxy)-pyrazolo[3,4-d]pyrimidin-1-yl]-piperidine-1-carboxylic acid tert-butyl ester]: the concentration giving a half-maximal response (EC50) was found to be 1.9 µM. The compound `CC(C)(C)OC(=O)N1CCC(n2ncc3c(Oc4ccc(Br)cc4C#N)ncnc32)CC1` [Example 52, 4-[4-(4-Bromo-2-cyano-phenoxy)-pyrazolo[3,4-d]pyrimidin-1-yl]-piperidine-1-carboxylic acid tert-butyl ester] had an EC50 of 0.75 µM.

For the origin of these results see US8188098B2, “GPR119 receptor agonists” (Hoffmann-La Roche Inc., priority 2008, dated 2012).
